Data as given in patent US20240216395A1, “19-NOR C3,3-DISUBSTITUTED C21 -N-PYRAZOLYL STEROID FOR USE IN TREATING MAJOR DEPRESSIVE DISORDER AND […]” (priority 2021, published 2024).
Values joined by “and” are separate entries in the source; they are usually repeats but may differ in a detail not shown here. Equal entries are not always repeated.

What was measured:
[1] = system: nondependent, recreational users of CNS depressants; assay: Abuse potential main study, treatment phase: TEAEs; type: in vivo, human
Protocol: The main study consisted of 4 phases (FIG. 30B). The screening phase was a 1-day visit occurring within 21 days of the beginning of the qualification phase. The qualification phase was a 4-day, inpatient period to ensure participants could discriminate between alprazolam (active comparator) and placebo, and that they could tolerate the alprazolam 2-mg doses. Participants received single-oral doses of alprazolam 2 mg and placebo in a crossover manner 24 hours apart, and if they could discriminate between the two medications, they continued to the treatment phase. The treatment phase was a double-blind, active- and placebo-controlled, 6-way crossover design where participants were randomized equally to a single oral dose of 1 of 6 treatments: placebo, alprazolam (1.5 and 3 mg), and Compound (1) (30, 60, and 90 mg). The Compound (1) doses were based on the results from the first part, dose selection, and treatments were separated by 7 days. The follow-up phase was a 1-day visit occurring 7 (2) days after the treatment phase.
Safety and tolerability endpoints included the frequency and severity of AEs and SAEs, the change from baseline in clinical laboratory assessments, vital signs, and ECG, and suicidality assessed by the Columbia-Suicide Severity Rating Scale (C-SSRS).
The dose selection safety set included all participants who received 1 dose of Compound (1). The main study qualification safety set included all participants who received ≥1 dose of alprazolam. For the treatment phase, the randomized set included all participants who were randomized and the safety set included all participants who received ≥1 dose of Compound (1) or alprazolam. The completer set included all participants in the randomized set who completed all treatment periods, had sufficient data for evaluation of the primary endpoint, and had ≥1 observation within 2 hours of Tmax for each treatment for Drug Liking VAS scores. […] The PK set included all participants in the treatment phase who received 1 dose of Compound (1) and had 1 PK sample after dosing.

[2] = system: adult subjects with major depressive disorder (MDD); assay: Phase 3 MDD study (NCT04442490): safety and tolerability (TEAEs, C-SSRS, PWC-20); type: in vivo, human
Protocol: • Incidence and severity of adverse events/serious adverse events • Changes from baseline in clinical laboratory measures, vital signs, and electrocardiograms (ECGs) • Suicidal ideation and behavior using the Columbia Suicide Severity Rating Scale (C-SSRS) • Potential withdrawal symptoms using the 20-item Physician Withdrawal Checklist (PWC-20)
Safety and tolerability of study drug was evaluated by incidence of adverse events/serious adverse events, vital signs, clinical laboratory evaluations, and 12-lead ECG.
Suicidality was monitored by the C-SSRS. Potential withdrawal symptoms after discontinuation of Compound (1) was assessed using the PWC-20.
Safety and tolerability were evaluated by incidence and severity of adverse events (AEs), serious adverse events (SAEs), changes from baseline in clinical laboratory evaluations, vital signs, and 12-lead electrocardiography. Suicidality was monitored by the Columbia Suicide Severity Rating Scale (C-SSRS). The Physician Withdrawal Checklist-20 total score (PWC-20TS) was used to monitor for the presence of potential withdrawal symptoms following discontinuation of Compound (1)-50 mg.

[3] = system: synaptic and extrasynaptic GABAA receptors; settings: in vitro; cited from earlier work
[4] = system: patients with PPD or MDD; assay: Most common TEAEs across clinical trials in PPD or MDD: overall ranges; type: in vivo, human; settings: 30 or 50 mg (N = 583)
From the text: The majority of patients receiving Compound (1) and experiencing a TEAE reported TEAEs mild and moderate in severity: clinical trial of Example 4 94%, Phase 2 clinical trial conducted by Applicant 100%, previous Phase 3 clinical trial conducted by Applicant 98%, and clinical trial of Example 1 95.0%.

[5] = treatment phase, Compound (1) 30 mg (n = 65)
[6] = treatment phase, Compound (1) 60 mg (n = 66)
[7] = treatment phase, Compound (1) 90 mg (n = 67)
[8] = 50 mg (n = 268), through Day 42

For `C[C@@]1(O)CC[C@H]2[C@H](CC[C@@H]3[C@@H]2CC[C@]2(C)[C@@H](C(=O)Cn4cc(C#N)cn4)CC[C@@H]32)C1` [Compound (1), 1-(2-((3R,5R,8R,9R,10S,13S,14S,17S)-3-hydroxy-3,13-dimethylhexadecahydro-1H-cyclopenta[a]phenanthren-17-yl)-2-oxoethyl)-1H-pyrazole-4-carbonitrile], the “Severe TEAEs and deaths” value ([1]; 30, 60, 90 mg single doses) was “no reported severe TEAEs nor deaths”, the “Back pain (TEAE)” value [1, 5] was 0 n and the “Confusional state (TEAE)” value [1, 5] was 0 n. The “Diarrhea (TEAE)” value [1, 5] was 0 n, the “Feeling drunk (TEAE)” value [1, 5] was 0 n and the “Fine motor skill dysfunction (TEAE)” value [1, 5] was 0 n. The “Hiccups (TEAE)” value [1, 5] was 0 n, the “Irritability (TEAE)” value [1, 5] was 0 n and the “Lacrimation increased (TEAE)” value [1, 5] was 0 n. The “Swelling face (TEAE)” value [1, 5] was 0 n, the “Tremor (TEAE)” value [1, 5] was 0 n and the “Upper respiratory tract infection (TEAE)” value [1, 5] was 0 n. For the same molecule, the “Back pain (TEAE)” value [1, 6] was 0 n, the “Confusional state (TEAE)” value [1, 6] was 0 n and the “Fine motor skill dysfunction (TEAE)” value [1, 6] was 0 n. The “Hiccups (TEAE)” value [1, 6] was 0 n, the “Irritability (TEAE)” value [1, 6] was 0 n and the “Lacrimation increased (TEAE)” value [1, 6] was 0 n. For the same molecule, the “Swelling face (TEAE)” value [1, 6] was 0 n, the “Upper respiratory tract infection (TEAE)” value [1, 6] was 0 n and the “Back pain (TEAE)” value [1, 7] was 0 n. For the same molecule, the “Diarrhea (TEAE)” value [1, 7] was 0 n, the “Hiccups (TEAE)” value [1, 7] was 0 n and the “Lacrimation increased (TEAE)” value [1, 7] was 0 n. For the same molecule, the “Upper respiratory tract infection (TEAE)” value [1, 7] was 0 n, the “AEs of loss of consciousness, weight gain, sexual dysfunction, euphoria” value ([2]; 50 mg) was “no loss of consciousness, weight gain, sexual dysfunction, or euphoria reported” and the Overall tolerability ([2]; 50 mg) was “generally well-tolerated”. The “TEAE Alanine aminotransferase increased” value [2, 8] was 3 (1.1%) n (%), the “TEAE Dry mouth” value [2, 8] was 10 (3.7%) n (%) and the “TEAE Tremor” value [2, 8] was 8 (3.0%) n (%). The “Any TEAE” value ([2]; 50 mg, ADT use at baseline=Yes (N = 79)) was 50 (63.3) n (%), the “TEAE Abnormal dreams” value ([2]; 50 mg, ADT=Yes (N = 79)) was 2 (2.5) n (%) and the “TEAE Alanine aminotransferase increased” value ([2]; 50 mg, ADT=Yes (N = 79)) was 2 (2.5) n (%). The “TEAE Diarrhea” value ([2]; 50 mg, ADT=Yes (N = 79)) was 4 (5.1) n (%), the “TEAE Disturbance in attention” value ([2]; 50 mg, ADT=Yes (N = 79)) was 0 n (%) and the “TEAE Dizziness” value ([2]; 50 mg, ADT=Yes (N = 79)) was 10 (12.7) n (%). The “TEAE Dry mouth” value ([2]; 50 mg, ADT=Yes (N = 79)) was 4 (5.1) n (%), the “TEAE Flatulence” value ([2]; 50 mg, ADT=Yes (N = 79)) was 0 n (%) and the “TEAE Gastroenteritis” value ([2]; 50 mg, ADT=Yes (N = 79)) was 2 (2.5) n (%). The “TEAE Headache” value ([2]; 50 mg, ADT=Yes (N = 79)) was 9 (11.4) n (%), the “TEAE Insomnia” value ([2]; 50 mg, ADT=Yes (N = 79)) was 2 (2.5) n (%) and the “TEAE Nausea” value ([2]; 50 mg, ADT=Yes (N = 79)) was 1 (1.3) n (%). For the same molecule, the “TEAE Restlessness” value ([2]; 50 mg, ADT=Yes (N = 79)) was 2 (2.5) n (%), the “TEAE Sedation” value ([2]; 50 mg, ADT=Yes (N = 79)) was 7 (8.9) n (%) and the “TEAE Somnolence” value ([2]; 50 mg, ADT=Yes (N = 79)) was 9 (11.4) n (%). The “TEAE Suicidal ideation” value ([2]; 50 mg, ADT=Yes (N = 79)) was 3 (3.8) n (%), the “TEAE Tremor” value ([2]; 50 mg, ADT=Yes (N = 79)) was 3 (3.8) n (%) and the “TEAE Upper respiratory tract infection” value ([2]; 50 mg, ADT=Yes (N = 79)) was 2 (2.5) n (%). For the same molecule, the “TEAE Urinary tract infection” value ([2]; 50 mg, ADT=Yes (N = 79)) was 2 (2.5) n (%), the “C-SSRS: No suicidal ideation/behavior” value ([2]; 50 mg, Day 8 (N = 255)) was 237 (92.9) n (%) and the “C-SSRS: Suicidal behavior” value ([2]; 50 mg, Day 8 (N = 255)) was 0 n (%). The “C-SSRS: Suicidal ideation” value ([2]; 50 mg, Day 8 (N = 255)) was 18 (7.1) n (%), the “C-SSRS: No suicidal ideation/behavior” value ([2]; 50 mg, Day 15 (N = 248)) was 229 (92.3) n (%) and the “C-SSRS: Suicidal behavior” value ([2]; 50 mg, Day 15 (N = 248)) was 0 n (%). The “C-SSRS: Suicidal ideation” value ([2]; 50 mg, Day 15 (N = 248)) was 19 (7.7) n (%), the “PWC-20 total score change from first assessment (CFFA), mean (SD)” value ([2]; 50 mg, Day 18) was −1.2 (4.3) and −1.2 (4.32) and the “Withdrawal symptoms by PWC-20” value ([2]; 50 mg, Day 18 or 21) was “No signals for withdrawal symptoms”. For the same molecule, the “PWC-20 total score change from first assessment (CFFA), mean (SD)” value ([2]; 50 mg, Day 21) was −0.3 (4.6) and −0.3 (4.37), the “C-SSRS: No suicidal ideation/behavior” value ([2]; 50 mg, Day 42 (N = 240)) was 223 (92.9) n (%) and the “C-SSRS: Suicidal behavior” value ([2]; 50 mg, Day 42 (N = 240)) was 0 n (%). The “C-SSRS: Suicidal ideation” value ([2]; 50 mg, Day 42 (N = 240)) was 17 (7.1) n (%), the “Suicidal ideation/behavior signal by C-SSRS” value ([2]; 50 mg, throughout the study) was “No signal of increased suicidal ideation/behavior” and the “Patients with a TEAE whose TEAEs were mild and moderate in severity” value ([2]; clinical trial of Example 1) was 95.0%. The “GABAA receptor binding and current potentiation” value [3] was “bind to both synaptic and extrasynaptic GABAA receptors, potentiating both phasic and tonic currents”, the “Any TEAE, overall range across trials” value [4] was 53.3-60.3% and the “Diarrhea, overall range across trials” value [4] was 0-6.4%. For the same molecule, the “Dizziness, overall range across trials” value [4] was 5.7-13.8%, the “Fatigue, overall range across trials” value [4] was 1.1-6.8% and the “Headache, overall range across trials” value [4] was 6.3-17.8%. The “Nausea, overall range across trials” value [4] was 3.6-11.1%, the “Sedation, overall range across trials” value [4] was 4.4-7.5% and the “Somnolence, overall range across trials” value [4] was 6.7-15.4%. The “URTI, overall range across trials” value [4] was 0-7.7%.
